In patent US20240124432A1, “HERBICIDAL COMPOUNDS” (SYNGENTA CROP PROTECTION AG, priority 2020, published 2024):

Legend:
Type in all cases: in vivo
[1] = tested on: AMAPA; assay: Pre-emergence biological efficacy; settings: Amaranthus palmeri, 312 h, evaluated after 13 days, read-out: damage to plant (100=total damage to plant; 0=no damage to plant)
Description: (§1) Seeds of weeds and/or crops were sown in standard soil in pots. After cultivation for one day under controlled conditions in a glasshouse (at 24/19° C., day/night; 16 hours light), the plants were sprayed with an aqueous spray solution derived from the formulation of the technical active ingredient in a small amount of acetone and a special solvent and emulsifier mixture referred to as IF50 (11.12% Emulsogen EL360 TM+44.44% N-methylpyrrolidone+44.44% Dowanol DPM glycol ether), to create a 50g/l solution which was then diluted using 0.2% Genapol XO80 as diluent to give the desired final dose of test compound.
(§2) The test plants were then grown under controlled conditions in the glasshouse (at 24/18° C., day/night; 15 hours light; 50% humidity) and watered twice daily. After 13 days the test was evaluated (100=total damage to plant; 0=no damage to plant).

[2] = tested on: ECHCG; assay: Pre-emergence biological efficacy; settings: Echinochloa crus-galli, 312 h, evaluated after 13 days, read-out: damage to plant (100=total damage to plant; 0=no damage to plant)
Description: as §1, §2

[3] = tested on: EPHHL; assay: Pre-emergence biological efficacy; settings: Euphorbia heterophylla, 312 h, evaluated after 13 days, read-out: damage to plant (100=total damage to plant; 0=no damage to plant)
Description: as §1, §2

[4] = tested on: IPOHE; assay: Pre-emergence biological efficacy; settings: Ipomoea hederacea, 312 h, evaluated after 13 days, read-out: damage to plant (100=total damage to plant; 0=no damage to plant)
Description: as §1, §2

[5] = tested on: LOLPE; assay: Pre-emergence biological efficacy; settings: Lolium perenne, 312 h, evaluated after 13 days, read-out: damage to plant (100=total damage to plant; 0=no damage to plant)
Description: as §1, §2

[6] = tested on: SETFA; assay: Pre-emergence biological efficacy; settings: Setaria faberi, 312 h, evaluated after 13 days, read-out: damage to plant (100=total damage to plant; 0=no damage to plant)
Description: as §1, §2

[7] = tested on: AMAPA; assay: Post-emergence biological efficacy; settings: Amaranthus palmeri, 312 h, evaluated after 13 days, read-out: damage to plant (100=total damage to plant; 0=no damage to plant)
Description: as §1, with “14 days” for “one day”
(§3) The test plants were then grown under controlled conditions in the glasshouse (at 24/18° C., day/night; 15 hours light; 50% humidity)and watered twice daily. After 13 days the test was evaluated (100=total damage to plant; 0=no damage to plant).

[8] = tested on: CHEAL; assay: Post-emergence biological efficacy; settings: Chenopodium album, 312 h, evaluated after 13 days, read-out: damage to plant (100=total damage to plant; 0=no damage to plant)
Description: as §1, with “14 days” for “one day”
as §3

[9] = tested on: DIGSA; assay: Post-emergence biological efficacy; settings: Digitaria sanguinalis, 312 h, evaluated after 13 days, read-out: damage to plant (100=total damage to plant; 0=no damage to plant)
Description: as §1, with “14 days” for “one day”
as §3

[10] = tested on: ECHCG; assay: Post-emergence biological efficacy; settings: Echinochloa crus-galli, 312 h, evaluated after 13 days, read-out: damage to plant (100=total damage to plant; 0=no damage to plant)
Description: as §1, with “14 days” for “one day”
as §3

[11] = tested on: ELEIN; assay: Post-emergence biological efficacy; settings: 312 h, evaluated after 13 days, read-out: damage to plant (100=total damage to plant; 0=no damage to plant)
Description: as §1, with “14 days” for “one day”
as §3

[12] = tested on: EPHHL; assay: Post-emergence biological efficacy; settings: Euphorbia heterophylla, 312 h, evaluated after 13 days, read-out: damage to plant (100=total damage to plant; 0=no damage to plant)
Description: as §1, with “14 days” for “one day”
as §3

[13] = tested on: IPOHE; assay: Post-emergence biological efficacy; settings: Ipomoea hederacea, 312 h, evaluated after 13 days, read-out: damage to plant (100=total damage to plant; 0=no damage to plant)
Description: as §1, with “14 days” for “one day”
as §3

[14] = tested on: LOLPE; assay: Post-emergence biological efficacy; settings: Lolium perenne, 312 h, evaluated after 13 days, read-out: damage to plant (100=total damage to plant; 0=no damage to plant)
Description: as §1, with “14 days” for “one day”
as §3

[15] = tested on: SETFA; assay: Post-emergence biological efficacy; settings: Setaria faberi, 312 h, evaluated after 13 days, read-out: damage to plant (100=total damage to plant; 0=no damage to plant)
Description: as §1, with “14 days” for “one day”
as §3

Structure (SMILES) | pest or weed control at 250 g/ha [1] [%] | pest or weed control at 250 g/ha [2] [%] | pest or weed control at 250 g/ha [3] [%] | pest or weed control at 250 g/ha [4] [%] | pest or weed control at 250 g/ha [5] [%] | pest or weed control at 250 g/ha [6] [%] | pest or weed control at 250 g/ha [7] [%] | pest or weed control at 250 g/ha [8] [%] | pest or weed control at 250 g/ha [9] [%] | pest or weed control at 250 g/ha [10] [%] | pest or weed control at 250 g/ha [11] [%] | pest or weed control at 250 g/ha [12] [%] | pest or weed control at 250 g/ha [13] [%] | pest or weed control at 250 g/ha [14] [%] | pest or weed control at 250 g/ha [15] [%]
CCOC(=O)C1(C)CC(c2cc(-c3ccc(C(F)(F)F)cc3Cl)c(F)cc2Cl)=NO1 (stereo not drawn) [Compound 1-7, Ethyl 3-[2-chloro-5-[2-chloro-4-(trifluoromethyl)phenyl]-4-fluoro-phenyl]-5-methyl-4H-isoxazole-5-carboxylate] | 30 | 0 | 0 | 0 | 0 | 0 | 90 | 100 | 40 | 30 | 70 | 90 | 90 | 10 | 60
CCOC(=O)C1(C)CC(c2cc(-c3ccccc3Cl)c(F)cc2Cl)=NO1 (stereo not drawn) [Compound 1-19, Ethyl 3-[2-chloro-5-(2-chlorophenyl)-4-fluoro-phenyl]-5-methyl-4H-isoxazole-5-carboxylate] | 0 | 0 | 0 | 0 | 0 | 0 | 90 | 90 | 20 | 20 | 20 | 90 | 80 | 10 | 40
CCOC(=O)C1(C)CC(c2cc(-c3ccc(C)cc3Cl)c(F)cc2Cl)=NO1 (stereo not drawn) [Compound 1-31, Ethyl 3-[2-chloro-5-(2-chloro-4-methyl-phenyl)-4-fluoro-phenyl]-5-methyl-4H-isoxazole-5-carboxylate] | 30 | 0 | 10 | 0 | 0 | 0 | 100 | 100 | 30 | 30 | 70 | 80 | 90 | 20 | 50
CCOC(=O)C1(C)CC(c2cc(-c3cccc(C(F)(F)F)n3)c(F)cc2Cl)=NO1 (stereo not drawn) [Compound 1-43, Ethyl 3-[2-chloro-4-fluoro-5-[6-(trifluoromethyl)-2-pyridyl]phenyl]-5-methyl-4H-isoxazole-5-carboxylate] | 20 | 0 | 0 | 0 | 0 | 0 | 80 | 80 | 30 | 20 | 70 | 20 | 60 | 0 | 90
CCOC(=O)C1(C)CC(c2cc(-c3cc(C(F)(F)F)cc(Cl)n3)c(F)cc2Cl)=NO1 (stereo not drawn) [Compound 1-67, Ethyl 3-[2-chloro-5-[6-chloro-4-(trifluoromethyl)-2-pyridyl]-4-fluoro-phenyl]-5-methyl-4H-isoxazole-5-carboxylate] | 10 | 0 | 0 | 0 | 0 | 0 | 20 | 10 | 10 | 0 | 0 | 40 | 30 | 0 | 20
CCOC(=O)C1(C)CC(c2cc(-c3ccnc(Cl)c3Cl)c(F)cc2Cl)=NO1 (stereo not drawn) [Compound 1-535, Ethyl 3-[2-chloro-5-(2,3-dichloro-4-pyridyl)-4-fluoro-phenyl]-5-methyl-4H-isoxazole-5-carboxylate] |  | 10 | 0 | 40 | 0 | 40 | 100 | 100 | 90 | 80 | 80 | 100 | 100 | 50 | 100
CCOC(=O)C1(C)CC(c2cc(-c3ccc(OC)nn3)c(F)cc2Cl)=NO1 (stereo not drawn) [Compound 1-703, Ethyl 3-[2-chloro-4-fluoro-5-(6-methoxypyridazin-3-yl)phenyl]-5-methyl-4H-isoxazole-5-carboxylate] |  | 0 | 0 | 0 | 0 | 0 | 100 | 100 | 70 | 80 | 70 | 100 | 60 | 70 | 70
CCOC(=O)C1(C)CC(c2cc(-c3cnc(C(F)(F)F)cn3)c(F)cc2Cl)=NO1 (stereo not drawn) [Compound 1-751, Ethyl 3-[2-chloro-4-fluoro-5-[5-(trifluoromethyl)pyrazin-2-yl]phenyl]-5-methyl-4H-isoxazole-5-carboxylate] | 20 | 50 |  | 50 | 20 | 40 | 100 | 100 | 100 | 100 | 100 | 100 | 100 | 70 | 100
CCOC(=O)C1(C)CC(c2cc(-c3cc(C(F)(F)F)cnc3Br)c(F)cc2Cl)=NO1 (stereo not drawn) [Compound 1-835, Ethyl 3-[5-[2-bromo-5-(trifluoromethyl)-3-pyridyl]-2-chloro-4-fluoro-phenyl]-5-methyl-4H-isoxazole-5-carboxylate] | 70 | 0 | 0 | 10 | 0 | 0 |  |  |  |  |  |  |  |  | 
